Values after ≈ are worked out from the molar mass of the structure shown. Like-named read-outs stand apart in the source and are kept apart here.
Assays:
[1] = test system: TMP-SMZ-resistant MRSA strain; assay: MIC against clinical isolates of MRSA; assay type: cell-based; conditions: Staphylococcus aureus
MCF-10 cells = assay: Mammalian cell toxicity (Alamar Blue); assay type: cell-based; conditions: Homo sapiens, MCF10; cytotoxicity, 4 h incubation; read-out: IC50 MCF-10
Protocol: Adherent cell lines were maintained in Eagle's Minimal Essential Media (Sigma-Aldrich, St. Louis, MO, USA) with 2 mM glutamine and Earle's Balanced Salt Solution (HyClone, Logan, UT, USA) adjusted to contain 1.5 g/L sodium bicarbonate, 0.1 mM non-essential amino acids, 1 mM sodium pyruvate and 10% fetal calf serum. Fetal calf serum used in these assays was lot matched throughout. […] Toxicity assays were conducted between passages 10–20. Target compound toxicity was measured by incubating the test compound with the cells for 4 h, washing the cells and finally treating the cells with Alamar Blue. After 12–24 h, the fluorescence of the reduced dye was measured. Fluorescence intensity as a function of test compound concentration was fit to the Fermi equation, using non-linear least squares regression analysis, to estimate IC50 values.

Human DHFR = target: T1, Human DHFR (Homo sapiens, UniProt P00374); assay: DHFR enzyme inhibition assay (NADPH oxidation, 340 nm); assay type: biochemical; conditions: human DHFR; average of at least three measurements; read-out: IC50 (nM) Human
T1 sequence (P00374 1-187): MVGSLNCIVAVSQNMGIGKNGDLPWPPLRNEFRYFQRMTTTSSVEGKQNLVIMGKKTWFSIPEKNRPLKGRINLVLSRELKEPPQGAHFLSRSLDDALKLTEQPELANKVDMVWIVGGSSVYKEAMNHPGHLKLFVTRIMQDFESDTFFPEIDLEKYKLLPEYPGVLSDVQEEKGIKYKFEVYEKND
Protocol: (§1) Enzyme inhibition assays were performed by monitoring the rate of NADPH oxidation by the DHFR enzyme at an absorbance of 340 nm over five minutes. Assays were performed in the presence of saturating concentrations of NADPH (100 µM) and initiated with dihydrofolate (1 mM). All assays were completed at 25°C in a buffer containing 20 mM TES pH 7.0, 50 mM KCl, 10 mM 2-mercaptoethanol, 0.5 mM EDTA and 1 mg/mL BSA. Inhibition was measured at least three times with inhibitor concentrations near the IC50 value and the average IC50 value is reported with a standard deviation.

USA100 HA-MRSA = assay: MIC against clinical isolates of MRSA; assay type: cell-based; conditions: Staphylococcus aureus
hVISA Mu3 = assay: MIC against clinical isolates of MRSA; assay type: cell-based; conditions: Staphylococcus aureus, read-out: MIC hVISA Mu3
VISA Mu50 = assay: MIC against clinical isolates of MRSA; assay type: cell-based; conditions: Staphylococcus aureus, read-out: MIC VISA Mu50
MRSA (S.aureus 13709) = assay: MIC, broth microdilution with Alamar Blue; assay type: cell-based, Staphylococcus aureus; conditions: for Selectivity MRSA: IC50 (MCF10)/MIC (pathogen), both values in µM; for MIC: Staphylococcus aureus, MRSA
Protocol: (§2) Stock solutions of standard antibiotics and test compounds were made at 50 mM in DMSO. […] For susceptibility testing, 10 µL of glycerol stock was suspended in a 10 mL shake flask culture of chemically defined Isosensitest broth (Oxoid) supplemented with 2% w/v glucose. A sample of the shake flask culture was diluted to 1×10^6 cells/mL in media and added to 96-well test plates (100 µL per well) containing test compounds dispensed in DMSO (2 µL) using serial two-fold dilutions. After an incubation period (30°C) determined from the strain specific doubling time, a 0.03% w/v aqueous solution of resazurin (10 µL) was added and the plates were allowed to incubate; each well was then scored for dye reduction.

HepG2 cells = assay: Mammalian cell toxicity (Alamar Blue); assay type: cell-based; conditions: Homo sapiens, cytotoxicity, 4 h incubation
Protocol: Fetal calf serum used in these assays was lot matched throughout. All cultures were maintained under a humidified 5% CO2 atmosphere at 37°C, had media refreshed twice weekly and were subcultured by trypsinization and resuspension at a ratio of 1∶5 each week. Toxicity assays were conducted between passages 10–20. Target compound toxicity was measured by incubating the test compound with the cells for 4 h, washing the cells and finally treating the cells with Alamar Blue. After 12–24 h, the fluorescence of the reduced dye was measured. Fluorescence intensity as a function of test compound concentration was fit to the Fermi equation, using non-linear least squares regression analysis, to estimate IC50 values.

S. pyogenes DHFR = S. pyogenes DHFR (Streptococcus pyogenes, UniProt Q9A091); assay: biochemical; assay type: biochemical; conditions: IC50 (human)/IC50 (pathogen)
Protocol: (§3) S. aureus DHFR was cloned, expressed and purified as previously described. Briefly, the DHFR gene was inserted into vector pET41 with a His8 tag for purification. The protein was expressed in E. coli BL21 (DE3) cells. […] The protein was concentrated to ∼5 mg/mL. S. pyogenes DHFR was cloned using PCR from genomic DNA and inserted in vector pET-41.
as §1

S. aureus DHFR = target: T2, S. aureus DHFR (Staphylococcus aureus, UniProt P0A017); assay: biochemical; assay type: biochemical; conditions: for Selectivity (h/Sa): IC50 (human)/IC50 (pathogen)
T2 construct: the DHFR gene was inserted into vector pET41 with a His8 tag for purification; His8; made in house; host or cells: E. coli BL21 (DE3)
Protocol: as §3, §1

USA300 CA-MRSA = assay: MIC against clinical isolates of MRSA; assay type: cell-based, Staphylococcus aureus; conditions: for MIC: Staphylococcus aureus, read-out: MIC USA300 CA-MRSA
HA-MRSA = assay: MIC against clinical isolates of MRSA; assay type: cell-based; conditions: Staphylococcus aureus, read-out: MIC HA-MRSA
Streptococcus pyogenes = assay: MIC, broth microdilution with Alamar Blue; assay type: cell-based; conditions: for Selectivity S. pyogenes: IC50 (MCF10)/MIC (pathogen), both values in µM; for MIC: Streptococcus pyogenes
Protocol: as §2

[2] = clinical isolate, Table 4, read-out: MIC TMP-SMZ^R
[3] = clinical isolate, USA100, read-out: MIC USA100 HA-MRSA
[4] = clinical isolate, first USA100 column, read-out: MIC USA100 HA-MRSA
[5] = clinical isolate, third USA100 column, read-out: MIC USA100 HA-MRSA
[6] = heteroresistant vancomycin intermediate S. aureus
[7] = value in parentheses, read-out: MIC MRSA
[8] = S. aureus DHFR, average of at least three measurements, read-out: IC50 (nM) Sa
[9] = value in parentheses, read-out: MIC S. pyogenes
[10] = 10% fetal calf serum, read-out: MIC MRSA +FCS
[11] = 10% fetal calf serum, value in parentheses, read-out: MIC MRSA +FCS
[12] = 10% FCS, read-out: MIC S. pyogenes +FCS
[13] = 10% FCS, value in parentheses, read-out: MIC S. pyogenes +FCS

T2 sequence (P0A017 whole entry): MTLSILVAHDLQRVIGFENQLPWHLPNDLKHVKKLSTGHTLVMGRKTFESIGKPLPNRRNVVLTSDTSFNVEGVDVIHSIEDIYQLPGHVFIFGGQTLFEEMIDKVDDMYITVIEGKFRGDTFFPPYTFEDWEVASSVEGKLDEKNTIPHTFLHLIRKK
Sequence of S. pyogenes DHFR (Q9A091 entry or part of it): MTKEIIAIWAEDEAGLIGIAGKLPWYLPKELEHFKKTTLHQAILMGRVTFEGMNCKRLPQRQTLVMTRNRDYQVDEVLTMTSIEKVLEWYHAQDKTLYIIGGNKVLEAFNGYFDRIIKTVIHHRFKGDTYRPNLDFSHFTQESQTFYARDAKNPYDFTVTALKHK

| SMILES | MIC [1, 2] | IC50 (MCF-10 cells) | IC50 (Human DHFR) | MIC (USA100 HA-MRSA; [3]) | MIC (USA100 HA-MRSA; [4]) | MIC (USA100 HA-MRSA; [5]) | MIC (hVISA Mu3; [6]) | MIC (VISA Mu50) | Selectivity MRSA (MRSA (S.aureus 13709)) | MIC (MRSA (S.aureus 13709); [7]) | MIC (MRSA (S.aureus 13709); read-out: MIC MRSA) | IC50 (HepG2 cells) | Selectivity (h/Sp) (S. pyogenes DHFR) | Selectivity (h/Sa) (S. aureus DHFR) | MIC (USA300 CA-MRSA; clinical isolate, USA300) | MIC (USA300 CA-MRSA; clinical isolate) | MIC (HA-MRSA; clinical isolate) | Selectivity S. pyogenes (Streptococcus pyogenes) | MIC (Streptococcus pyogenes; [9]) | MIC (Streptococcus pyogenes; read-out: MIC S. pyogenes) | other results |
| --- | --- | --- | --- | --- | --- | --- | --- | --- | --- | --- | --- | --- | --- | --- | --- | --- | --- | --- | --- | --- | --- |
| CCc1nc(N)nc(N)c1C#CCc1cccc(-c2cccnc2)c1 [Compound 36] | 0.045 µg/mL (≈ 0.137 µM) | > 500000 nM | 290 ± 15 nM | 0.36 µg/mL (≈ 1.09 µM) | 5.76 µg/mL (≈ 17.5 µM) | 0.09 µg/mL (≈ 0.273 µM) | 0.36 µg/mL (≈ 1.09 µM) | 0.72 µg/mL (≈ 2.19 µM) | >4,000 | 0.125 µM | 0.041 µg/mL | > 500000 nM | 6 | 9 | 0.36 µg/mL (≈ 1.09 µM) | 0.02 µg/mL (≈ 0.0607 µM) | 0.36 µg/mL (≈ 1.09 µM) | >2,000 | 0.25 µM | 0.08 µg/mL | IC50 (S. aureus DHFR; [8]): 33 ± 0.5 nM |
| CN[C@H](CC(C)C)C(=O)N[C@H]1C(=O)N[C@@H](CC(N)=O)C(=O)N[C@H]2C(=O)N[C@H]3C(=O)N[C@H](C(=O)N[C@H](C(=O)O)c4cc(O)cc(O)c4-c4cc3ccc4O)[C@H](O)c3ccc(c(Cl)c3)Oc3cc2cc(c3O[C@@H]2O[C@H](CO)[C@@H](O)[C@H](O)[C@H]2O[C@H]2C[C@](C)(N)[C@H](O)[C@H](C)O2)Oc2ccc(cc2Cl)[C@H]1O [Vancomycin, reference compound] | – | – | – | – | – | – | – | 8 µg/mL (≈ 5.52 µM) | – | – | – | – | – | – | – | – | – | – | – | – | MIC ([1]; read-out: MIC TMP-SMZ^R): 2 µg/mL (≈ 1.38 µM); MIC (USA100 HA-MRSA; read-out: MIC USA100 HA-MRSA, clinical isolate, USA100): 1 µg/mL (≈ 0.69 µM); MIC (USA100 HA-MRSA; read-out: MIC USA100 HA-MRSA, clinical isolate, first USA100 column): 0.5 µg/mL (≈ 0.345 µM); MIC (USA100 HA-MRSA; read-out: MIC USA100 HA-MRSA, clinical isolate, third USA100 column): 1 µg/mL (≈ 0.69 µM); MIC (hVISA Mu3): 3 µg/mL (≈ 2.07 µM); MIC (USA300 CA-MRSA): 1 µg/mL (≈ 0.69 µM); MIC USA300 CA-MRSA (USA300 CA-MRSA; clinical isolate, USA300): 1 µg/mL (≈ 0.69 µM); MIC (HA-MRSA): 1 µg/mL (≈ 0.69 µM) |
| CCc1nc(N)nc(N)c1C#CCc1cc(-c2ccncc2)ccc1OC [Compound 26] | 0.04 µg/mL (≈ 0.111 µM) | 217000 nM | 330 ± 12 nM | 0.08 µg/mL (≈ 0.223 µM) | 5.3 µg/mL (≈ 14.7 µM) | 0.04 µg/mL (≈ 0.111 µM) | 0.04 µg/mL (≈ 0.111 µM) | 0.04 µg/mL (≈ 0.111 µM) | 3,391 | 0.064 µM | 0.02 µg/mL | 199000 nM | 17 | 16 | 0.08 µg/mL (≈ 0.223 µM) | 0.08 µg/mL (≈ 0.223 µM) | 0.08 µg/mL (≈ 0.223 µM) | 1,736 | 0.125 µM | 0.04 µg/mL | MIC (MRSA (S.aureus 13709); [10]): 0.09 µg/mL; MIC (MRSA (S.aureus 13709); [11]): 0.25 µM; IC50 (S. aureus DHFR; [8]): 21 ± 1 nM; MIC (Streptococcus pyogenes; [12]): 0.09 µg/mL; MIC (Streptococcus pyogenes; [13]): 0.25 µM |
| CCc1nc(N)nc(N)c1C#CCc1cccc(-c2ccncc2)c1 [Compound 28] | 0.045 µg/mL (≈ 0.137 µM) | 475000 nM | 520 ± 23 nM | 0.045 µg/mL (≈ 0.137 µM) | 2.9 µg/mL (≈ 8.8 µM) | 0.045 µg/mL (≈ 0.137 µM) | 0.045 µg/mL (≈ 0.137 µM) | 0.09 µg/mL (≈ 0.273 µM) | 1,900 | 0.25 µM | 0.08 µg/mL | > 500000 nM | 17 | 26 | 0.045 µg/mL (≈ 0.137 µM) | 0.045 µg/mL (≈ 0.137 µM) | 0.045 µg/mL (≈ 0.137 µM) | 3,800 | 0.125 µM | 0.04 µg/mL | MIC (MRSA (S.aureus 13709); [10]): 0.16 µg/mL; MIC (MRSA (S.aureus 13709); [11]): 0.5 µM; IC50 (S. aureus DHFR; [8]): 20 ± 0.5 nM; MIC (Streptococcus pyogenes; [12]): 0.09 µg/mL; MIC (Streptococcus pyogenes; [13]): 0.25 µM |
| CCc1nc(N)nc(N)c1C#CCc1cc(OC)cc(-c2ccncc2)c1 [Compound 27] | 0.045 µg/mL (≈ 0.125 µM) | 409000 nM | 61 ± 5.7 nM | 0.045 µg/mL (≈ 0.125 µM) | 2.9 µg/mL (≈ 8.07 µM) | 0.045 µg/mL (≈ 0.125 µM) | 0.045 µg/mL (≈ 0.125 µM) | 0.18 µg/mL (≈ 0.501 µM) | 3,272 | 0.125 µM | 0.04 µg/mL | 465000 nM | 2 | 5 | 0.045 µg/mL (≈ 0.125 µM) | 0.045 µg/mL (≈ 0.125 µM) | 0.045 µg/mL (≈ 0.125 µM) | 3,272 | 0.125 µM | 0.04 µg/mL | MIC (MRSA (S.aureus 13709); [10]): 0.09 µg/mL; MIC (MRSA (S.aureus 13709); [11]): 0.25 µM; IC50 (S. aureus DHFR): 12 ± 2.4 nM; MIC (Streptococcus pyogenes; [12]): 0.09 µg/mL; MIC (Streptococcus pyogenes; [13]): 0.25 µM |
